Numbers after ± are expanded uncertainties.
Tests used:
[1] = 101 kPa, Liquid; for viscosity: Capillary tube (Ostwald / Ubbelohde) method; for mass density: Pycnometric method
[2] = xn = mol fraction of the nth substance listed; conditions: 101 kPa, Liquid, x1 = 1; for viscosity: Capillary tube (Ostwald / Ubbelohde) method; for mass density: Pycnometric method

Compound	viscosity ([1]; 288.15 K)	mass density ([1]; 288.15 K)	viscosity ([1]; 298.15 K)	mass density ([1]; 298.15 K)	viscosity ([1]; 308.15 K)	mass density ([1]; 308.15 K)	viscosity ([1]; 318.15 K)	mass density ([1]; 318.15 K)	viscosity ([2]; 288.15 K)	mass density ([2]; 288.15 K)	viscosity ([2]; 298.15 K)	mass density ([2]; 298.15 K)	viscosity ([2]; 308.15 K)	mass density ([2]; 308.15 K)	viscosity ([2]; 318.15 K)	mass density ([2]; 318.15 K)
C=C(C)C(=O)OCCO [2-hydroxyethyl 2-methyl-2-propenoate]	8.234 ± 0.19 mPa·s	1074.7 ± 2.4 kg/m3	5.784 ± 0.13 mPa·s	1067.1 ± 2.4 kg/m3	4.194 ± 0.096 mPa·s	1057.7 ± 2.4 kg/m3	3.181 ± 0.073 mPa·s	1048.6 ± 2.4 kg/m3	–	–	–	–	–	–	–	–
CCCCO [butan-1-ol]	3.286 ± 0.07 mPa·s	812.3 ± 1.7 kg/m3	2.566 ± 0.055 mPa·s	805.6 ± 1.7 kg/m3	1.998 ± 0.043 mPa·s	798 ± 1.7 kg/m3	1.55 ± 0.033 mPa·s	790.5 ± 1.6 kg/m3	–	–	–	–	–	–	–	–
C=C(C)C(=O)O [2-methyl-2-propenoic acid]	1.447 ± 0.031 mPa·s	1018.3 ± 2.1 kg/m3	1.267 ± 0.027 mPa·s	1009.5 ± 2.1 kg/m3	1.078 ± 0.023 mPa·s	999.4 ± 2.1 kg/m3	0.945 ± 0.02 mPa·s	989.2 ± 2.1 kg/m3	–	–	–	–	–	–	–	–
C=C(C)C(=O)OCc1ccccc1 [benzyl methacrylate]	2.871 ± 0.066 mPa·s	1041.2 ± 2.4 kg/m3	2.302 ± 0.053 mPa·s	1034.7 ± 2.3 kg/m3	1.885 ± 0.043 mPa·s	1025.8 ± 2.3 kg/m3	1.58 ± 0.036 mPa·s	1017 ± 2.3 kg/m3	–	–	–	–	–	–	–	–

More lines, now with the values ahead:

viscosity ([1]; 288.15 K)	mass density ([1]; 288.15 K)	viscosity ([1]; 298.15 K)	mass density ([1]; 298.15 K)	viscosity ([1]; 308.15 K)	mass density ([1]; 308.15 K)	viscosity ([1]; 318.15 K)	mass density ([1]; 318.15 K)	viscosity ([2]; 288.15 K)	mass density ([2]; 288.15 K)	viscosity ([2]; 298.15 K)	mass density ([2]; 298.15 K)	viscosity ([2]; 308.15 K)	mass density ([2]; 308.15 K)	viscosity ([2]; 318.15 K)	mass density ([2]; 318.15 K)	Compound
–	–	–	–	–	–	–	–	3.286 ± 0.07 mPa·s	812.3 ± 1.7 kg/m3	2.566 ± 0.055 mPa·s	805.6 ± 1.7 kg/m3	1.998 ± 0.043 mPa·s	798 ± 1.7 kg/m3	1.55 ± 0.033 mPa·s	790.5 ± 1.6 kg/m3	CCCCO [butan-1-ol] + C=C(C)C(=O)OCc1ccccc1
–	–	–	–	–	–	–	–	3.286 ± 0.07 mPa·s	812.3 ± 1.7 kg/m3	2.566 ± 0.055 mPa·s	805.6 ± 1.7 kg/m3	1.998 ± 0.043 mPa·s	798 ± 1.7 kg/m3	1.55 ± 0.033 mPa·s	790.5 ± 1.6 kg/m3	CCCCO [butan-1-ol] + C=C(C)C(=O)OCCO
–	–	–	–	–	–	–	–	3.286 ± 0.07 mPa·s	812.3 ± 1.7 kg/m3	2.566 ± 0.055 mPa·s	805.6 ± 1.7 kg/m3	1.998 ± 0.043 mPa·s	798 ± 1.7 kg/m3	1.55 ± 0.033 mPa·s	790.5 ± 1.6 kg/m3	CCCCO [butan-1-ol] + C=C(C)C(=O)O

— the NIST ThermoML archive (doi:10.1021/je0601255)
